Data from patent US20200222418A1, “USE OF PHENOTHIAZINE DERIVATIVE IN THE TREATMENT OF INFECTION CAUSED BY BACTERIA CARRYING TYPE IV PILI” (priority 2017, published 2020).
Entries after “also recorded” stand apart in the source; their conditions may differ.

Tests used:
[1] = test system: HDMECs infected with Nm2C4.3; test: Cytoskeleton remodelling and cell junction integrity of infected HDMEC (immunofluorescence); format: cell-based, human; details: Gentamicin 150 μg/ml 1 h, Trifluoperazine 50 μM applied after gentamicin
Method: (A) Experimental procedure: HDMEC were infected for 2 h with Nm2C4.3, treated for 1 h with gentamicin (150 μg/ml) and then 15 min with Trifluoperazine (50 μM) (or solvent alone as a control) and left in medium for 1 h before fixation. (B) Upper panels: Representative fluorescence microscopy showing the effect on the endothelial cell cytoskeleton remodelling analysed by immunostaining of Ezrin and Actin. Lower panels: Effect on the endothelial cell junction integrity was analysed by immunostaining of Actin and VE-cadherin. (C) Quantification of the bacterial colonization (upper panel) Ezrin recruitment and cortical actin polymerization at sites of bacterial adhesion (lower panel) was performed using Image J software.
HDMECs were grown in their specific culture medium (Promocell #C-12210) and confluent monolayers were infected with 2C4.3. Briefly, bacteria were precultured in prewarmed cell culture medium for 1 h 30 min at 37° C. 5% CO2. The OD600 was adjusted to 0.1 and HDMECs were then overlaid with bacteria for 30 min (MOI of 100). Unbound bacteria were removed by three washes in cell culture media and infection was allowed to proceed for 1 h at 37° C. 5% CO2. Gentamicin was added at 150 μg/ml for 1 h, then after three washes in cell culture media, Trifluoperazine was applied where mentioned at 50 μM for 20 min. After three washes in cell culture media, cells were allowed to recover for 1 h in cell culture media. At the indicated time, cells were fixed with 4% Paraformaldehyde for 10 min. Immunolabelling was then performed as above described in example 4, using DAPI, Alexa Fluor 633 Phalloidin, Polyclonal antisera raised against Ezrin, obtained from Pr P. Mangeat (CRBM, Montpellier, France) and anti-human VE-Cadherin (eBioscience #BMS158).

[2] = test system: Nm2C4.3 microcolonies on HBMEC, human bone marrow endothelial cell line; test: Dispersion of meningococcal microcolonies on HBMEC (vascular colonisation index); format: cell-based, Neisseria meningitidis; details: 30 min, Trifluoperazine 10-40 μM, Gentamicin 150 μg/ml, Cefotaxim 20 μg/ml
Method: Human […] microvascular endothelial cells (HBMEC) were infected with Nm2C4.3 for 1 h 30, treated with Trifluoperazine (10-40 μM) for 30 minutes, before fixation and immunofluorescence analysis using anti-Nm2C4.3 antibody and Alexa Fluor 633 Phalloidin. (A) Representative fluorescence microscopy showing bacterial colony (white dots) formed at the surface of the endothelial cells. (B) Quantification of the bacterial colonization was performed using Image J software.
HBMEC, a human endothelial cell line isolated from […] capillaries (Schweitzer et al., 1997) were grown in Dulbecco's Modified Eagle Medium (DMEM) 4.5 g/L-Glutamax (ThermoFischer) 10% FBS. Cells were grown on Thermanox coverslips coated with gelatin 2% (BD Difco #214340) for 2 days to reach confluency. Cells were then infected with a suspension of Nm2C4.3 (˜10^7 CFU/ml) in DMEM/FBS during 30 minutes to allow bacterial adhesion. Cells were then washed three times with medium to remove non-adherent bacteria and infection was pursued for 1 h 30: adherent bacteria grew at the endothelial cell surface and formed micro-colonies. Trifluoperazine was then added to obtain final concentrations of 10, 20, 30 and 40 μM. After incubation for 30 minutes, cells were washed and fixed in 4% Paraformaldehyde for 10 min, washed three times with PBS, and permeabilized with 0.1% Triton X-100 in PBS for 10 min. Cells were blocked for 30 min with 3% BSA in PBS and were incubated for 2 h with the primary antibodies (Rabbit polyclonal anti-Nm2C4.3 strain, kindly provided by Dr X. Nassif, INEM, Paris). After three washes with PBS, cells were incubated for 1 h with […] anti-rabbit IgG (Jackson ImmunoResearch Laboratories), together with Alexa Fluor 633 Phalloidin (Thermofischer) and DAPI ([…], Sigma Aldrich) to stain Actin and nuclei, respectively. Labelled preparations were mounted in Glycergel media (DAKO) and image acquisitions were performed with a DM16000 microscope (Leica, X40). Quantification was done with ImageJ software (NIH). […]

[3] = test system: N. meningitidis Nm2C4.3 strain; test: Bactericidal activity, colony forming unit count after treatment in liquid culture; format: cell-based, Neisseria meningitidis; details: 15 min; for bactericidal effect: Gentamicin 150 μg/ml, Trifluoperazine 10 to 50 μM
Method: N. meningitidis Nm2C4.3 strain grown in liquid culture at 10^7 CFU/ml were treated with increasing concentrations of Trifluoperazine (10 to 50 μM) or Gentamicin (150 μg/ml) for 15 minutes (A) Bactericidal activity was determined by the count of colony forming units on GCB agar plates 24 h after treatment. (B) Images of the non-treated bacteria or bacteria treated with 30 μM TFP grown for 24 h on GCB agar plates.
Nm2C4.3, a piliated capsulated Opa^−Opc^− variant of the serogroup C meningococcal clinical isolate 8013, was cultured in Dulbecco's Modified Eagle Medium (DMEM) 4.5 g/L-Glutamax media 0.1% BSA during two hours at 37° C. 5% CO2. A bacterial suspension at optical density (OD) 0.1 was then distributed in 24-well plate (1 ml/well). After 1 hour of incubation, Trifluoperazine (Sigma #T8516, stock solution in PBS) was added to obtain final concentrations of 10, 20, 30, 40, and 50 μM. Gentamicin (150 μg/ml in DMEM) and PBS alone were used as controls. After 15 min treatment, serial dilutions were performed in physiological water and 100 μl of each dilution were plated on Petri dishes containing GCB solid media (BD, Difco GC media) containing supplements, incubated overnight and the colony forming units were counted.

In the case of `CN1CCN(CCCN2c3ccccc3Sc3ccc(C(F)(F)F)cc32)CC1` [Trifluoperazine], the “Ezrin recruitment and cortical actin polymerization at bacterial adhesion sites” value [1] was “Few Ezrin recruitment”, the “VE-cadherin staining / endothelial cell junction integrity” value [1] was “preserved endothelial cell junction integrity” and the “bacterial colonies at the endothelial cell surface” value [1] was “induced their dispersion; also recorded: induced the dispersion of most of the bacterial colonies”. For the same compound, the “dispersion of compact meningococcal microcolonies established at the endothelial cell surface” value [2] was “induced their dispersion”, the bactericidal effect [3] was “moderate bactericidal effect” and the “viable count of the culture” value ([3]; Trifluoperazine 10 to 30 μM, culture contained 10^7 CFU/ml) was 10^6 CFU/ml.

With `CN[C@@H]1[C@@H](O)C(O[C@@H]2[C@@H](O)[C@H](O[C@H]3O[C@H]([C@@H](C)NC)CC[C@H]3N)[C@@H](N)C[C@H]2N)OC[C@]1(C)O` (stereo partly drawn) [Gentamicin, (3R,4R,5R)-2-{[(1S,2S,3R,4S,6R)-4,6-diamino-3-{[(2R,3R,6S)-3-amino-6-[(1R)-1-(methylamino)ethyl]oxan-2-yl]oxy}-2-hydroxycyclohexyl]oxy}-5-methyl-4-(methylamino)oxane-3,5-diol] the “Ezrin recruitment and cortical actin polymerization at bacterial adhesion sites” value [1] was “still induced Ezrin recruitment, cortical actin polymerization”, the “VE-cadherin staining / endothelial cell junction integrity” value [1] was “discontinuous distribution of VE-cadherin” and the “bacterial colonies at the endothelial cell surface” value [1] was “reduced the number of colonies”. The “dispersion of compact meningococcal microcolonies established at the endothelial cell surface” value [2] was “poorly induced the dispersion” and the bactericidal effect [3] was “killed all bacteria”.
